Results as given in ChEMBL document CHEMBL5291721, “A preclinical secondary pharmacology resource illuminates target-adverse drug reaction associations of marketed drugs” (Nat Commun, 2023).

Columns and labels:
[1] = target: T1, Alpha-1A adrenergic receptor (Homo sapiens, UniProt P35348); type: functional, cell-based
T1 sequence (P35348 whole entry): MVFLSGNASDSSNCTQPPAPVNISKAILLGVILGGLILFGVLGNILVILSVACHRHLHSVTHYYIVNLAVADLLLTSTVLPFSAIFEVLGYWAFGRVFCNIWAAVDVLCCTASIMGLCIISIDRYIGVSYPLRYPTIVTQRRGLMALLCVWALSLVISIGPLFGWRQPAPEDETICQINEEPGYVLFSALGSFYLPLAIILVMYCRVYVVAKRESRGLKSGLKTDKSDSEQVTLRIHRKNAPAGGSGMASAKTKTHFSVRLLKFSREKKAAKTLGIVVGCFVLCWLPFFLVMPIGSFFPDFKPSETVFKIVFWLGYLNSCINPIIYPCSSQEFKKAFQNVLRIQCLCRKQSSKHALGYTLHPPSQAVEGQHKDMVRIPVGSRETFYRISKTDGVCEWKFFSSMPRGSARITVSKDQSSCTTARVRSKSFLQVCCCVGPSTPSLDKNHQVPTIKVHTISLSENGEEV

[2] = target: T1, Alpha-1A adrenergic receptor; type: functional, cell-based; remark: listed apart in the source
Progesterone receptor = target: T2, Progesterone receptor (Homo sapiens, UniProt P06401)
T2 sequence (P06401 whole entry): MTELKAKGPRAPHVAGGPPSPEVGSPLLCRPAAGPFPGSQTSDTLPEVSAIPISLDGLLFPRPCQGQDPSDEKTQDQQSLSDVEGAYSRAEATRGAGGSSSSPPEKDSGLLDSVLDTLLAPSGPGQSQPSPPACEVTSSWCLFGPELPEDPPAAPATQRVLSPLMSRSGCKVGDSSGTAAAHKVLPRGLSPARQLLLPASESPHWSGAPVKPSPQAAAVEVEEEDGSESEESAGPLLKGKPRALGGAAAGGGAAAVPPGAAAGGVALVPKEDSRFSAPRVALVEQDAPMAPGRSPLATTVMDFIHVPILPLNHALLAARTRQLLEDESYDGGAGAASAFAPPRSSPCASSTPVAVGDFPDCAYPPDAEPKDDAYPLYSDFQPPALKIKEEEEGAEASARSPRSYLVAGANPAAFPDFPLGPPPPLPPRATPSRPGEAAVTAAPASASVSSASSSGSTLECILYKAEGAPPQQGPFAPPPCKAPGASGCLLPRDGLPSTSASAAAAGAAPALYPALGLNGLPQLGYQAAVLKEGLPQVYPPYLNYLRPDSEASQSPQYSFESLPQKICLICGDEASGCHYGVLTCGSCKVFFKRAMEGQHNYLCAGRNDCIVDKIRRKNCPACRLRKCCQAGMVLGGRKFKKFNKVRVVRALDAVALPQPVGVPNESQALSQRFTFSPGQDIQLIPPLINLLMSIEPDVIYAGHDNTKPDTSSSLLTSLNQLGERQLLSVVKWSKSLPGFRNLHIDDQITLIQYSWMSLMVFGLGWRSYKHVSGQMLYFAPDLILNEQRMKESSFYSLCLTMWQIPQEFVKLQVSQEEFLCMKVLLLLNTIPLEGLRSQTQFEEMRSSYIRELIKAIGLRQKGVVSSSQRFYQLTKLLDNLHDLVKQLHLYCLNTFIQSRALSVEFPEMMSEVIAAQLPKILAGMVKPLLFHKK

[3] = target: T3, Muscarinic acetylcholine receptor M2 (Homo sapiens, UniProt P08172); type: functional, cell-based
T3 sequence (P08172 whole entry): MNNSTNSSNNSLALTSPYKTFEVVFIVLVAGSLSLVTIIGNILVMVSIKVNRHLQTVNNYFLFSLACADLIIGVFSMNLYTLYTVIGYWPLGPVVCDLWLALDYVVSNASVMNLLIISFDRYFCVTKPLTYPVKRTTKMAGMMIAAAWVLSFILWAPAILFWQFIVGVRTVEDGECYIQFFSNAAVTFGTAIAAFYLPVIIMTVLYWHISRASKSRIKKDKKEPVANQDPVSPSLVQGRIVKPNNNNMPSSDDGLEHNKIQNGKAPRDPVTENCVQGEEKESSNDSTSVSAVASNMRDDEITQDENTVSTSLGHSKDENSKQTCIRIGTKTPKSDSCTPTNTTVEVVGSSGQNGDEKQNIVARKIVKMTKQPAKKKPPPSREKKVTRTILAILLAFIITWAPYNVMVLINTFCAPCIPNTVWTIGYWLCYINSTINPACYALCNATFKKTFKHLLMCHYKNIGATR

Glucocorticoid receptor = target: T4, Glucocorticoid receptor (Homo sapiens, UniProt P04150)
T4 sequence (P04150 whole entry): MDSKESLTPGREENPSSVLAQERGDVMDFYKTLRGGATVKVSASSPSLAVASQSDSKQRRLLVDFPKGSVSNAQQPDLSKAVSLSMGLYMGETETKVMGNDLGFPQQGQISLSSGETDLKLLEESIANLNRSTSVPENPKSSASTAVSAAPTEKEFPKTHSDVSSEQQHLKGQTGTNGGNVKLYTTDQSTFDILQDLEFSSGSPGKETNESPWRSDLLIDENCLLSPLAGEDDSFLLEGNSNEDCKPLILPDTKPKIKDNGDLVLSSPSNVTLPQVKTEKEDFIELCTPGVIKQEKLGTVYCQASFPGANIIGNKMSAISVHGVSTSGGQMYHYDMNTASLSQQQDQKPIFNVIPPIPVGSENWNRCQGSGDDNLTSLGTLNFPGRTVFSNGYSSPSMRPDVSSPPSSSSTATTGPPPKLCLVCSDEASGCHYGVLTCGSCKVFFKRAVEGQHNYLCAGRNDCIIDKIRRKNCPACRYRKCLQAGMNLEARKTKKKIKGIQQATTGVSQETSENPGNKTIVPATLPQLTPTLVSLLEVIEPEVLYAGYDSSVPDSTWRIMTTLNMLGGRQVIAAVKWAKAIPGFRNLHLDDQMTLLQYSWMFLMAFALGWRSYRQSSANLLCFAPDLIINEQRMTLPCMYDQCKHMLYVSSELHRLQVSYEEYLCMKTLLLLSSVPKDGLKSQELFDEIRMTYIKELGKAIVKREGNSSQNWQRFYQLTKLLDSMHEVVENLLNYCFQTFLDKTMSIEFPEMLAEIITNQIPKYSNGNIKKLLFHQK

[4] = target: Beta-1 adrenergic receptor (Homo sapiens, UniProt P08588); type: functional
[5] = target: Beta-2 adrenergic receptor (Homo sapiens, UniProt P07550)
[6] = target: Glutamate receptor ionotropic, NMDA 1 (Rattus norvegicus, UniProt P35439)
Also: assay procedure not described here.

Chain of Beta-2 adrenergic receptor (P07550 whole entry): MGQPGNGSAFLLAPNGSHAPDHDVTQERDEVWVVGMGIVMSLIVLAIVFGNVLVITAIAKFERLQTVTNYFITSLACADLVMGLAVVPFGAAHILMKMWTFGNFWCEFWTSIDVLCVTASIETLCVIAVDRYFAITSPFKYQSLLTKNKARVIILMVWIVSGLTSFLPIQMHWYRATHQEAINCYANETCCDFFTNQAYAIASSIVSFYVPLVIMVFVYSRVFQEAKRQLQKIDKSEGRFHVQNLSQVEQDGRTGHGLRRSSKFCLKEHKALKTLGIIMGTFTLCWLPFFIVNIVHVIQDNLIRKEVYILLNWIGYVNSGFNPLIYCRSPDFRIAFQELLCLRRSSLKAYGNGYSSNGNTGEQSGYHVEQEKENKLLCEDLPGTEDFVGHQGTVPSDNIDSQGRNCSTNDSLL
Chain of Beta-1 adrenergic receptor (P08588 whole entry): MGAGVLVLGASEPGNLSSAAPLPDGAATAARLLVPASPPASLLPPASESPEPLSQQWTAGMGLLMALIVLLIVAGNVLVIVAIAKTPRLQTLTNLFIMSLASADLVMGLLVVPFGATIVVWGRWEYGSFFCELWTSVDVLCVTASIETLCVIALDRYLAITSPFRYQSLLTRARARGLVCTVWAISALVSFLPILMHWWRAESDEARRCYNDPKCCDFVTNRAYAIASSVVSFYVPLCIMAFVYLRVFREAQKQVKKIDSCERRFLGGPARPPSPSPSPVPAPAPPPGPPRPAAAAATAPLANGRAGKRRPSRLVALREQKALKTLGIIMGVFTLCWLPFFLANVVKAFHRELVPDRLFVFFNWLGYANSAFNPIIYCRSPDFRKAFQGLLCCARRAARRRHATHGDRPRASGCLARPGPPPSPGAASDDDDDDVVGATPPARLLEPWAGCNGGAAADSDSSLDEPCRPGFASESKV

| SMILES | AC50 [1] | AC50 [2] | AC50 (Progesterone receptor) | AC50 [3] | AC50 (Glucocorticoid receptor) | AC50 [4] | AC50 [5] | AC50 [6] |
| --- | --- | --- | --- | --- | --- | --- | --- | --- |
| C#C[C@]1(O)CC[C@H]2[C@@H]3CCC4=CC(=O)CC[C@@H]4[C@H]3CC[C@@]21CC [LEVONORGESTREL] | > 30 µM | > 30 µM |  |  |  |  |  |  |
| OC[C@@H](O)[C@@H](O)[C@H](O)[C@H](O)CO [MANNITOL] | > 30 µM | > 30 µM | > 30 µM |  |  |  |  |  |
| CN1CCCC(CN2c3ccccc3Sc3ccccc32)C1 (stereo not given) [MEPAZINE] | > 30 µM | 0.391 µM | > 30 µM |  |  |  |  |  |
| Sc1ncnc2nc[nH]c12 [MERCAPTOPURINE ANHYDROUS] | > 30 µM | > 30 µM | > 30 µM |  |  |  |  |  |
| C[N+]1(C)[C@@H]2C[C@@H](OC(=O)[C@H](CO)c3ccccc3)C[C@H]1[C@@H]1O[C@@H]12 [METHSCOPOLAMINE] | > 30 µM | > 30 µM | > 30 µM |  |  |  |  |  |
| CC(=O)Oc1c(C)cc(OCC(O)CNC(C)C)c(C)c1C (stereo not given) [METIPRANOLOL] | > 30 µM | > 30 µM | > 30 µM |  |  |  |  |  |
| O=C1CC[C@@]2(O)[C@H]3Cc4ccc(O)c5c4[C@@]2(CCN3CC2CC2)[C@H]1O5 [NALTREXONE] | > 30 µM | > 30 µM | > 30 µM |  |  |  |  |  |
| CC(N/C(=N\C#N)Nc1ccncc1)C(C)(C)C (stereo not given) [PINACIDIL ANHYDROUS] | > 30 µM | > 30 µM | > 30 µM |  |  |  |  |  |
| CCc1ccc(CCOc2ccc(CC3SC(=O)NC3=O)cc2)nc1 (stereo not given) [PIOGLITAZONE] | > 30 µM | > 10 µM | > 30 µM | > 10 µM | > 30 µM | > 10 µM | > 10 µM | > 10 µM |
| CC(O)CO (stereo not given) [PROPYLENE GLYCOL] | > 30 µM | > 30 µM | > 30 µM |  |  |  |  |  |
| CN(C)C(=O)Oc1ccc[n+](C)c1 [PYRIDOSTIGMINE] | > 30 µM | > 30 µM | > 30 µM |  |  |  |  |  |
| Cc1cc2c(cc1CC(=O)c1sccc1S(=O)(=O)Nc1onc(C)c1Cl)OCO2 [SITAXENTAN] |  |  | > 30 µM |  |  |  |  |  |
| CC(C)OC(=O)[C@H](C)N[P@](=O)(OC[C@H]1O[C@@H](n2ccc(=O)[nH]c2=O)[C@](C)(F)[C@@H]1O)Oc1ccccc1 [SOFOSBUVIR] | > 30 µM | > 30 µM | > 30 µM |  |  |  |  |  |
| Cc1ccc(O)c2ncccc12 [TILIQUINOL] | > 30 µM | > 30 µM | > 30 µM |  |  |  |  |  |
| CC(=O)OC[C@H]1O[C@@H](n2ccc(=O)[nH]c2=O)[C@H](OC(C)=O)[C@@H]1OC(C)=O [URIDINE TRIACETATE] | > 30 µM | > 30 µM | > 30 µM |  |  |  |  |  |
| CCOC(=O)N[C@@H]1CC[C@@H]2[C@@H](C1)C[C@H]1C(=O)O[C@H](C)[C@H]1[C@H]2/C=C/c1ccc(-c2cccc(F)c2)cn1 [VORAPAXAR] | > 30 µM | > 30 µM | > 30 µM |  |  |  |  |  |
